Reference: patent US7241812B2, “Methods and compositions for modulating sphingosine-1-phosphate (S1P) receptor activity” (Praecis Pharmaceuticals, Inc., priority 2004, dated 2007)

How the values were obtained:
[1] = molecular target: T1, S1P1 receptor (Homo sapiens, UniProt P21453); test: Binding to S1P1 receptor, [33P]sphingosine 1-phosphate displacement on membranes of transfected HEK 293 T cells; settings: 2.5 pM [33P]sphingosine 1-phosphate, 60 minutes at room temperature
T1 construct: expressed in transfected cells; host or cells: HEK 293 T cells (crude membrane preparation)
T1 sequence (P21453 whole entry): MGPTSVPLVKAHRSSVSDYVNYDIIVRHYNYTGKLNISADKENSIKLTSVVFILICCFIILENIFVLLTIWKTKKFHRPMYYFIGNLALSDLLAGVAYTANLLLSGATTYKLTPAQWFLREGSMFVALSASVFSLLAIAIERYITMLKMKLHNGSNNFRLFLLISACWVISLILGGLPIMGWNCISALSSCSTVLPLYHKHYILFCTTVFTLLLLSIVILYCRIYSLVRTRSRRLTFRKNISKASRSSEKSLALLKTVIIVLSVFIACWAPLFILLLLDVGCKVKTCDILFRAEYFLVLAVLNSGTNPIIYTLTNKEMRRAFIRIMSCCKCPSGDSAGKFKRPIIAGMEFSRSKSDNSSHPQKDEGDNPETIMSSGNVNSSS
Method: (§1) The ability of several of the compounds described herein to bind to the S1P1 or S1P3 receptor was also tested as follows.
(§2) For the membrane preparation, plasmid DNA was transfected into HEK 293 T cells using the FuGENE 6 transfection protocol (publicly available by Roche). Briefly, subconfluent monolayers of HEK 293 T cells were transfected with the DNA mixture containing FuGENE 6 (using a 1:3 ratio). The dishes containing the cells were then placed in a tissue culture incubator (5% CO2, 37° C.). The cells were harvested 48 hours after addition of the DNA by scraping in HME buffer (in mM: 20 HEPES, 5 MgCl2, 1 EDTA, pH 7.4, 1 mM PMSF) containing 10% sucrose on ice, and disrupted using a Dounce homogenizer. After centrifugation at 800×g, the supernatant was diluted with HME without sucrose and centrifuged at 17,000×g for 1 hour. This crude membrane pellet was resuspended in HME with sucrose, aliquoted, and snap-frozen by immersion in liquid nitrogen. The membranes were stored at −70 C. Protein concentration was determined spectroscopically by Bradford protein assay.
(§3) For the binding assay, [^33P]sphingosine 1-phosphate (obtained from American Radiolabeled Chemicals, Inc) was added to membranes in 200 μl in 96-well plates with assay concentrations of 2.5 pM [^33P]sphingosine 1-phosphate, 4 mg/ml BSA, 50 mM HEPES, pH 7.5, 100 mM NaCl, 5 mM MgCl2, and 5 μg of protein. Binding was performed for 60 minutes at room temperature with gentle mixing and terminated by collecting the membranes onto GF/B filter plates. After drying the filter plates for 10 minutes, 50 μl of Microscint 40 was added to each well, and filter-bound radionuclide was measured on a Packard Top Count. Nonspecific binding was defined as the amount of radioactivity remaining in the presence of excess of unlabeled S1P.

[2] = molecular target: T2, S1P3 receptor (Homo sapiens, UniProt Q99500); test: Binding to S1P3 receptor, [33P]sphingosine 1-phosphate displacement on membranes of transfected HEK 293 T cells; settings: 2.5 pM [33P]sphingosine 1-phosphate, 60 minutes at room temperature
T2 construct: expressed in transfected cells; host or cells: HEK 293 T cells (crude membrane preparation)
T2 sequence (Q99500 whole entry): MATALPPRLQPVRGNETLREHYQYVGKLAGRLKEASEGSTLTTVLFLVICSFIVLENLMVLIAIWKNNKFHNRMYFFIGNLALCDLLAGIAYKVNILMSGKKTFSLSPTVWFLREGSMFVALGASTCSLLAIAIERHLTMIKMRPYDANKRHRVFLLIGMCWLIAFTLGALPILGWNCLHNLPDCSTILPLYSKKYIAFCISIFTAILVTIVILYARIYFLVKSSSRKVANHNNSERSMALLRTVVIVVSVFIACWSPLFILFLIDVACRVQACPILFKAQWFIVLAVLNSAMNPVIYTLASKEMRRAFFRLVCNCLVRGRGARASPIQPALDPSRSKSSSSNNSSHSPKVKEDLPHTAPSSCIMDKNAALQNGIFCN
Method: as §1, §2, §3

Row | SMILES | IC50 [1] [nM] | IC50 [2] [nM]
1 | CCCCCCCc1ccc(C(=O)N[C@@H](C)CO)cc1 [compound 127] | 56 | 59
2 | CCCCCCCN(C)C(=O)c1ccc(NC(=O)[C@@H](N)[C@@H](C)O)cc1 [compound 126] | > 10000 | > 10000
3 | CCc1ccc(Oc2ccc(NC(=O)[C@@](C)(N)CO)cc2)cc1 [compound 134] | 114 | 1200
4 | CCCCCCCCc1ccc(CCC2(N)COP(=O)(O)OC2)cc1 (centres unmarked) [compound 45] | 2.4 | 343
5 | C[C@](N)(COP(=O)(O)O)C(=O)Nc1ccc(-c2cnn(Cc3ccccc3)c2)cc1 [compound 105] | 2000 | > 10000
6 | COc1cccc(Oc2ccc(NC(=O)[C@@](C)(N)CO)cc2)c1 [compound 59] | 3.5 | 50
7 | CCOc1ccc(-c2ccc(CCOc3ccc(NC(=O)[C@@](C)(N)CO)cc3)cc2)cc1 [compound 47] | 23 | 5000
8 | CCc1ccc(-c2ccc(CCOc3ccc(NC(=O)[C@@](C)(N)CO)cc3)cc2)cc1 [compound 46] | 250 | 5000
9 | CCc1ccc(OC[C@](C)(N)C(=O)Nc2ccc(Oc3ccc(CC)cc3)cc2)cc1 [compound 131] | 218 | 833
10 | C[C@](N)(CO)C(=O)Nc1ccc(Oc2ccccc2)cc1 [compound 129] | 17.9 | 6330
11 | CCCCc1ccc(Oc2ccc(NC(=O)[C@@](C)(N)CO)cc2)cc1 [compound 133] | 650 | > 10000
12 | CCCCCCNC(=O)c1ccc(NC(=O)[C@@H](N)[C@@H](C)O)cc1 [compound 125] | 2000 | –
13 | COc1ccc(CCCCOc2ccc(NC(=O)[C@@](C)(N)COP(=O)(O)O)cc2)cc1 [compound 110] | 23 | 2150
14 | Cc1cc(NC(=O)[C@@](C)(N)CO)ccc1Oc1ccccc1 [compound 124] | 15 | 164
15 | CCCCCNC(=O)c1ccc(NC(=O)[C@@H](N)[C@@H](C)O)cc1 [compound 128] | 0.84 | 160
16 | C[C@](N)(CO)C(=O)Nc1ccc(OCCc2ccc(-c3ccc(Cl)cc3)cc2)cc1 [compound 49] | 240 | 8000
17 | C[C@](N)(COc1ccccc1)C(=O)Nc1ccc(Oc2ccccc2)cc1 [compound 130] | 90 | > 10000
18 | COc1ccc(CCOc2ccc(NC(=O)[C@@](C)(N)CO)cc2)cc1OC [compound 34] | 1000 | > 10000
19 | CCCCc1ccc(OC[C@](C)(N)C(=O)Nc2ccc(Oc3ccc(CCCC)cc3)cc2)cc1 [compound 132] | 167 | 3500

More lines, now with the values ahead:

Row | IC50 [1] [nM] | IC50 [2] [nM] | SMILES
20 | 8 | 315 | COc1cccc(-c2ccc(NC(=O)[C@@](C)(N)CO)cc2)c1 [compound 142]
21 | 12 | 1040 | CC(N)(CO)C(=O)Nc1ccc(OCCCCc2ccc(C(F)(F)F)cc2)cc1 (centres unmarked) [compound 141]
22 | 4000 | > 10000 | CCCCCCCCc1ccc(OC2CN[C@H](CO)C2)cc1 (some centres unmarked) [compound 137]
23 | 1.3 | – | C[C@](N)(CO)C(=O)Nc1ccc(OCCc2ccc(-c3ccoc3)cc2)cc1 [compound 157]
24 | > 10000 | > 10000 | Cc1ccccc1-c1ccc(CCOc2ccc(NC(=O)[C@@](C)(N)CO)cc2)cc1 [compound 152]
25 | 500 | > 1000 | CC(COc1ccc(NC(=O)[C@@](C)(N)CO)cc1)c1ccc(-c2ccccc2)c(F)c1 (some centres unmarked) [compound 160]
26 | > 10000 | > 10000 | C[C@](N)(CO)c1ncc(-c2ccc(OCCc3ccc(-c4ccccc4)cc3)cc2)[nH]1 [compound 148]
27 | > 10000 | > 10000 | C[C@](N)(CO)C(=O)Nc1ccc(OCCc2cccc(-c3ccccc3)c2)cc1 [compound 155]
28 | 2400 | > 10000 | CCCOc1cccc(-c2ccc(NC(=O)[C@@](C)(N)CO)cc2)c1 [compound 144]
29 | 21 | > 10000 | C[C@](N)(CO)C(=O)Nc1ccc(-c2csc(-c3ccc(-c4ccccc4)cc3)n2)cc1 [compound 154]
30 | 0.55 | 5030 | CC(C)c1ccc(-c2ccc(CCOc3ccc(NC(=O)[C@@](C)(N)CO)cc3)cc2)cc1 [compound 150]
31 | 150 | > 1000 | C[C@](N)(CO)C(=O)Nc1ccc(OCCc2ccc(-c3cccs3)cc2)cc1 [compound 158]
32 | 3800 | > 10000 | C[C@](N)(CO)C(=O)Nc1ccc(Oc2ccc(Cl)cc2)cc1 [compound 138]
33 | 3.4 | 2000 | CC(C)Oc1cccc(-c2ccc(NC(=O)[C@@](C)(N)CO)cc2)c1 [compound 145]
34 | 0.8 | 285 | C[C@](N)(CO)C(=O)Nc1ccc(OCc2ccc(-c3ccccc3)cc2)cc1 [compound 153]
35 | 22.1 | 2500 | CCCCOc1ccc(Oc2ccc(NC(=O)[C@@](C)(N)CO)cc2)cc1 [compound 135]
36 | 166 | 130 | C[C@](N)(CO)C(=O)Nc1ccc(-c2cccc(OCc3ccccc3)c2)cc1 [compound 147]
37 | 6 | 3250 | C[C@](N)(CO)C(=O)Nc1ccc(OCCc2ccc(-c3ccncc3)cc2)cc1 [compound 156]
38 | 2.5 | 220 | C[C@](N)(CO)C(=O)Nc1ccc(Oc2ccc(F)cc2)cc1 [compound 139]
